The values below come from patent publication EP0705259B1, “PHENYRROLE DERIVATIVES AND THEIR USE AS DOPAMINE D3 ANTAGONISTS” (SMITHKLINE BEECHAM PLC, priority 1993, dated 1995).

Counter-ions that a name gives are not always drawn.

T1 sequence (P35462 whole entry): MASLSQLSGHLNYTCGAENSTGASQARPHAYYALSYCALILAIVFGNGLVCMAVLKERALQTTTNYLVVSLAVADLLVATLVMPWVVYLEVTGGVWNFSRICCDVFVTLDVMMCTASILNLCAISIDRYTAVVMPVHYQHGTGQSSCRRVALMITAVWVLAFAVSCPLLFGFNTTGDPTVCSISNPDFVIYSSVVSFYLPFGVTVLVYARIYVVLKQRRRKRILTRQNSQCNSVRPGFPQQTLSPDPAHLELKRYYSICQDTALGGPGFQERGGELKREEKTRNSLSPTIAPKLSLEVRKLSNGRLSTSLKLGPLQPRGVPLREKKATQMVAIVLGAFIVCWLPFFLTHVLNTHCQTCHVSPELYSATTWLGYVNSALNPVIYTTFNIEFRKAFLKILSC

This assay has as its target T1, human D3 dopamine receptors (Homo sapiens, UniProt P35462).
T1 construct: expressed in transfected cells; host or cells: CHO cells (crude cell membranes)
As to the kind of experiment: biochemical. Format: binding. Particulars: human D3 receptor; CHO cell membranes, 0.1 nM [125I] iodosulpride, 30 min at 37°C. The procedure:
Cultures were grown as monolayers or in suspension in standard cell culture media. Cells were recovered by scraping (from monolayers) or by centrifugation (from suspension cultures), and were washed two or three times by suspension in phosphate buffered saline followed by collection by centrifugation. Cell pellets were stored frozen at -40°C. Crude cell membranes were prepared by homogenisation followed by high-speed centrifugation, and characterisation of cloned receptors achieved by radioligand binding.
Cell pellets were gently thawed at room temperature, and resuspended in about 20 volumes of ice-cold 50 mM Tris salts (pH 7.4 @ 37°C), 20mM EDTA, 0.2 M sucrose. The suspension was homogenised using an Ultra-Turrax (TM) at full speed for 15 sec. The homogenate was centrifuged at 18,000 r.p.m for 20 min at 4°C in a Sorvall RC5C centrifuge. The membrane pellet was resuspended in ice-cold 50 mM Tris salts (pH 7.4 @ 37°C), using an Ultra-Turrax (TM), and recentrifuged at 18,000 r.p.m for 15 min at 4°C in a Sorvall RC5C. The membranes were washed two more times with ice-cold 50 mM Tris salts (pH 7.4 @ 37°C). The final pellet was resuspended in 50 mM Tris salts (pH 7.4 @ 37°C), and the protein content determined using bovine serum albumin as a standard (Bradford, M. M. (1976) Anal. Biochem. 72, 248-254).
Crude cell membranes were incubated with 0.1 nM [^125I] iodosulpride (∼2000 Ci/mmol; Amersham, U. K.), and the test compound in a buffer containing 50 mM Tris salts (pH 7.4 @ 37°C), 120 mM NaCl, 5 mM KCl, 2 mM CaCl2, 1 mM MgCl2, 0.1% (w/v) bovine serum albumin, in a total volume of 1 ml for 30 min at 37°C. Following incubation with the test compound, samples were filtered using a Brandel Cell Harvester (TM), and washed three times with ice-cold 50 mM Tris salts (pH 7.4 @ 37°C), 120 mM NaCl, 5 mM KCl, 2 mM CaCl2, 1 mM MgCl2. The radioactivity on the filters was measured using a Cobra (TM) gamma counter (Canberra Packard). Non-specific binding was defined as the radioligand binding remaining after incubation in the presence of 100 µM iodosulpride. For competition curves, 14 concentrations (half-log dilutions) of competing cold drug were used.
Competition curves were analysed simultaneously whenever possible using non-linear least-squares fitting procedures, capable of fitting one, two or three site models.
The compound `CCS(=O)(=O)c1ccc(OC)c(-c2ccc(CN3CCCCCC3c3ccccc3)[nH]2)c1` (racemic) [Example 3, 2-(5-Ethylsulphonyl-2-methoxyphenyl)-5-(1-(2-(R,S)-phenylazacycloheptyl)-methyl)-1H-pyrrole, hydrochloride] displayed an IC50 of 0.001 to 0.05 µM.
Compound `CCS(=O)(=O)c1cc(Br)c(OC)c(-c2ccc(CN3CCCCCC3c3ccccc3)[nH]2)c1` (racemic) [Example 6, 2-(3-Bromo-5-ethylsulphonyl-2-methoxyphenyl)-5-(1-(2-(R,S)-phenylazacycloheptyl)methyl)-1H-pyrrole, hydrochloride] yielded an IC50 of 0.001 to 0.05 µM.
`CCS(=O)(=O)c1ccc(OC)c(-c2ccc(CN3CCCCC[C@@H]3c3ccccc3)[nH]2)c1` [Example 10, 2-(5-Ethylsulphonyl-2-methoxyphenyl)-5-(1-(2-(R)-phenylazacycloheptyl)methyl)-1H-pyrrole, oxalate] returned an IC50 of 0.001 to 0.05 µM.
`CCS(=O)(=O)c1ccc(OC)c(-c2ccc(CN3CCCCC[C@H]3c3ccccc3)[nH]2)c1` [Example 11, 2-(5-Ethylsulphonyl-2-methoxyphenyl)-5-(1-(2-(S)-phenylazacycloheptyl)methyl)-1H-pyrrole, oxalate] yielded an IC50 of 0.001 to 0.05 µM.
Regarding `COc1ccc(S(=O)(=O)N2CCOCC2)cc1-c1ccc(CN2CCCCC[C@@H]2c2ccccc2)[nH]1` [Example 13, 2-(2-Methoxy-5-(4-morpholinyl)sulphonylphenyl)-5-(1-(2-(R)-phenylazacycloheptyl)methyl)-1H-pyrrole, oxalate], the concentration for half-maximal inhibition (IC50) was in the range of 0.001 to 0.05 µM.
